According to patent US20100292185A1, “BETA-LACTAMASE INHIBITORS” (priority 2009, published 2010):
Structures can show the parent of a compound that is named as a salt.

Experiments:
[1] = target: T1, SHV-5 β-lactamase (Klebsiella pneumoniae, UniProt P0A3M1); experiment: β-lactamase enzyme inhibition assay (nitrocefin substrate), SHV-5; format: biochemical
T1 construct: expressed as native untagged proteins; made in house; host or cells: E. coli BL21(DE3)
In short: (§1)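 Enzyme was first mixed with serially diluted compound (100 to 0.005 μM) in PBS pH 7.0 and held 10 min at 37 °C. Next, nitrocefin was dispensed to 100 μM final, and hydrolysis was followed at 486 nm for 10 min. Percent inhibition was then calculated from maximum rates and fitted to an IC50.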

[2] = target: T2, CTX-M15 β-lactamase (Escherichia coli, UniProt Q9EXV5); experiment: β-lactamase enzyme inhibition assay (nitrocefin substrate), CTXM-15; format: biochemical
T2 construct: expressed as native untagged proteins; made in house; host or cells: E. coli BL21(DE3)
T2 sequence (Q9EXV5 entry or part of it): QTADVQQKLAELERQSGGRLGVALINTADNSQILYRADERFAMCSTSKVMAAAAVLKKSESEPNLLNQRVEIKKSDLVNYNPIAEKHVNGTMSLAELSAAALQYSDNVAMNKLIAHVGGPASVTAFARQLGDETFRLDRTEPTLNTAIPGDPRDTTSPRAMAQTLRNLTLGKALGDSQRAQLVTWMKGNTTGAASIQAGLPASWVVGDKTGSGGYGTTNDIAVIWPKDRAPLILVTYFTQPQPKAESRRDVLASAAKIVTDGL
In short: as §1

[3] = target: T3, p99 AmpC β-lactamase (Enterobacter cloacae, UniProt P05364); experiment: β-lactamase enzyme inhibition assay (nitrocefin substrate), P99 AmpC; format: biochemical; details: nitrocefin 100 μM, 37° C., PBS pH 7.0; read-out: P99 AmpC IC50
T3 construct: expressed as native untagged proteins; made in house; host or cells: E. coli BL21(DE3)
T3 sequence (P05364 21-381): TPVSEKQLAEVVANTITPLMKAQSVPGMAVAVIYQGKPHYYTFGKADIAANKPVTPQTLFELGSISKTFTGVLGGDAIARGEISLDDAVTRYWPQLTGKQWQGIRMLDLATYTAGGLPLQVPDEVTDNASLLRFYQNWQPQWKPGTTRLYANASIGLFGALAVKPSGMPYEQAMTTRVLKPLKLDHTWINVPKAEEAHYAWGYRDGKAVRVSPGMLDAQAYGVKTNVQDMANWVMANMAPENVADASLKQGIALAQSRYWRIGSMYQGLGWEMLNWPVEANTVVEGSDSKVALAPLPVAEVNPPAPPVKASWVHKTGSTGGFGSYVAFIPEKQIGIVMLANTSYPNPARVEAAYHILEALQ
In short: as §1

[4] = target: T4, KPC-2 β-lactamase (Klebsiella pneumoniae, UniProt Q9F663); experiment: β-lactamase enzyme inhibition assay (nitrocefin substrate), KPC-2; format: biochemical
T4 construct: expressed as native untagged proteins; made in house; host or cells: E. coli BL21(DE3)
T4 sequence (Q9F663 25-293 limits assumed): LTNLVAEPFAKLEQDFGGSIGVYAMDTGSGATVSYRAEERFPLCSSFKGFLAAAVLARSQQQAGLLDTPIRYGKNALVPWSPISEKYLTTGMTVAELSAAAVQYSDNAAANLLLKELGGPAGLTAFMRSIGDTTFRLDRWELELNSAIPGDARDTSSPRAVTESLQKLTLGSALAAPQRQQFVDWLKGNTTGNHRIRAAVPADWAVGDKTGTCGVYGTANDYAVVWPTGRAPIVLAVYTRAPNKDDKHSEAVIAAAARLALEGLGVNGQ
In short: as §1

[5] = target: T5, VIM-2 metallo β-lactamase (Pseudomonas aeruginosa, UniProt Q9K2N0); experiment: β-lactamase enzyme inhibition assay (nitrocefin substrate), VIM-2; format: biochemical; details: nitrocefin 100 μM, 37° C., PBS pH 7.0; read-out: VIM-2 IC50
T5 construct: made in house
In short: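 VIM-2 was expressed untagged in E. coli BL21(DE3) and purified by two Q sepharose anion-exchange runs plus gel filtration to >90% purity. Compounds at 100–0.005 μM in PBS pH 7.0 were preincubated with enzyme for 10 min at 37° C, then nitrocefin was added at 100 μM final. Hydrolysis was followed kinetically at 486 nm for 10 min; IC50 is the concentration halving the initial rate relative to no-inhibitor wells.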

[6] = target: T6, OXA-23 β-lactamase (Acinetobacter baumannii, UniProt Q9L4P2); experiment: β-lactamase enzyme inhibition assay (nitrocefin substrate), OXA-23 crude extract; format: biochemical; details: nitrocefin 100 μM, 37° C., PBS pH 7.0; read-out: OXA-23 IC50
T6 construct: crude β-lactamase extracts were prepared from 20 ml overnight cultures; endogenous in cells; host or cells: Acinetobacter baumannii cells containing OXA-23 (crude freeze-thaw extract)
T6 sequence (Q9L4P2 18-273): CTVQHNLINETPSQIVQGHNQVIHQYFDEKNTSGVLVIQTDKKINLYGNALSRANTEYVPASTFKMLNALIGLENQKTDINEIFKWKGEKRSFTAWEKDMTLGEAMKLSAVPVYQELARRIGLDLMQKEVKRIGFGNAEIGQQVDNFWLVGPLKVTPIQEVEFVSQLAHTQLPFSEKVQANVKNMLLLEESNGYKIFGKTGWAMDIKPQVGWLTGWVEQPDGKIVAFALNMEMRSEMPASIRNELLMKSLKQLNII
In short: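 Crude enzyme came from freeze-thaw extracts of mid-log OXA-23-carrying A. baumannii grown in MH-II broth at 37° C. Inhibitors (100–0.005 μM in PBS pH 7.0) were preincubated with the enzyme for 10 min at 37° C, then 100 μM nitrocefin (final) was added and read kinetically at 486 nm for 10 min. IC50 was taken from initial hydrolysis rates relative to uninhibited controls.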

[7] = system: E. coli expressing the Class A ESBL SHV-5; experiment: In vitro antibacterial assay of β-lactamase inhibition (broth microdilution MIC), E. coli SHV-5; format: cell-based; details: in presence of Ceftazidime 8 μg/ml (Examples 1-56)
In short: (§2)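 Each strain, maintained under 50 μg/mL ampicillin selection, was exposed to twofold compound dilutions (final range 8 μg/mL to 0.015 μg/ml) combined with a β-lactam antibiotic in cation-adjusted Mueller Hinton broth. The MIC was judged visually following overnight (16-20 h) incubation at 37° C.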

[8] = system: K. pneumoniae expressing the Class A Extended Spectrum Beta-Lactamase (ESBL) CTX-M-15; experiment: In vitro antibacterial assay of β-lactamase inhibition (broth microdilution MIC), K. pneumoniae CTX-M-15; format: cell-based; details: in presence of Ceftazidime 8 μg/ml (Examples 1-56)
In short: as §2

[9] = system: E. cloacae expressing the Class C P99+; experiment: In vitro antibacterial assay of β-lactamase inhibition (broth microdilution MIC), E. cloacae P99+; format: cell-based; details: in presence of Ceftazidime 8 μg/ml (Examples 1-56)
In short: as §2

[10] = system: K. pneumoniae expressing the Class A carbapenemase KPC-2; experiment: microbe, parasite or virus in culture; format: cell-based; details: in presence of Ceftazidime 8 μg/ml (Examples 1-56)
In short: as §2

[11] = system: P. aeruginosa expressing the Class B metallo β-lactamase VIM-2; experiment: In vitro antibacterial assay of β-lactamase inhibition (broth microdilution MIC), P. aeruginosa VIM-2; format: cell-based; details: in presence of Ceftazidime 16 μg/mL (Examples 1-56)
In short: as §2

T1 sequence (P0A3M1 22-286): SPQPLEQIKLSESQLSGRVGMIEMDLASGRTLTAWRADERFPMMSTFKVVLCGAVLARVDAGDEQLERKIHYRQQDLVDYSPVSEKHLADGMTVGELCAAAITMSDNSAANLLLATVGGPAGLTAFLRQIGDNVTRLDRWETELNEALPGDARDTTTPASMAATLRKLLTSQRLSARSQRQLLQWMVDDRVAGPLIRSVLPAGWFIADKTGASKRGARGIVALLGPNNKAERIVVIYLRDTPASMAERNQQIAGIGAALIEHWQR

Structure (SMILES): Cl.NCCNCc1ccc(C(=O)N[C@@H](Cc2cccc(C(=O)O)c2O)B(O)O)cc1 [Example 15, (1R)-[4-(2-amino-ethylamino)-methyl]-benzoylamino-(3-carboxy-2-hydroxy)benzyl-methyl boronic acid hydrochloride]
- IC50 [1]: > 1000 nM
- IC50 [2]: 7 nM
- IC50 [3]: 5 nM
- IC50 [4]: 18 nM
- IC50 [5]: 47 nM
- IC50 [6]: > 1000 nM
- MIC of example compound, E. coli SHV-5 [7]: 4 µg/mL
- MIC of example compound, K. pneumoniae CTX-M-15 [8]: 0.25 µg/mL
- MIC of example compound, E. cloacae P99+ [9]: 4 µg/mL
- MIC of example compound, K. pneumoniae KPC-2 [10]: 0.01 µg/mL
- MIC of example compound, P. aeruginosa VIM-2 [11]: >8 µg/mL

Structure (SMILES): NCCNCc1cccc(C(=O)N[C@@H](Cc2cccc(C(=O)O)c2O)B(O)O)c1 [Example 18, (1R)-[3-{(2-aminoethylamino)-methyl}-benzoylamino]-(3-carboxy-2-hydroxy)benzyl-methylboronic acid formate]
- IC50 [1]: 257 nM
- IC50 [2]: 1 nM
- IC50 [3]: 0.3 nM
- IC50 [4]: 14 nM
- IC50 [5]: 99 nM
- IC50 [6]: 41 nM
- MIC of example compound, E. coli SHV-5 [7]: 8 µg/mL
- MIC of example compound, K. pneumoniae CTX-M-15 [8]: 0.5 µg/mL
- MIC of example compound, E. cloacae P99+ [9]: 0.25 µg/mL
- MIC of example compound, K. pneumoniae KPC-2 [10]: 0.06 µg/mL
- MIC of example compound, P. aeruginosa VIM-2 [11]: >8 µg/mL

Structure (SMILES): O=C(N[C@@H](Cc1cccc(C(=O)O)c1O)B(O)O)c1cccc(CNCc2cccnc2)c1 [Example 19, (1R)-(3-{[(pyridin-3-ylmethyl)amino]methyl}-benzoylamino)-(3-carboxy-2-hydroxy)benzyl-methylboronic acid formate]
- IC50 [1]: 54 nM
- IC50 [2]: 1 nM
- IC50 [3]: 0.2 nM
- IC50 [4]: 6 nM
- IC50 [5]: 510 nM
- IC50 [6]: 19 nM
- MIC of example compound, E. coli SHV-5 [7]: 8 µg/mL
- MIC of example compound, K. pneumoniae CTX-M-15 [8]: 2 µg/mL
- MIC of example compound, E. cloacae P99+ [9]: 2 µg/mL
- MIC of example compound, K. pneumoniae KPC-2 [10]: 0.12 µg/mL
- MIC of example compound, P. aeruginosa VIM-2 [11]: >8 µg/mL

Structure (SMILES): O=C(N[C@@H](Cc1cccc(C(=O)O)c1O)B(O)O)c1cccc(CN2CCNCC2)c1 [Example 20, (1R)-(3-piperazin-1-ylmethyl-benzoylamino-(3-carboxy-2-hydroxy)benzyl-methylboronic acid formate]
- IC50 [1]: 42 nM
- IC50 [2]: 20 nM
- IC50 [3]: 0.3 nM
- IC50 [4]: 9 nM
- IC50 [5]: 179 nM
- IC50 [6]: 22 nM
- MIC of example compound, E. coli SHV-5 [7]: 4 µg/mL
- MIC of example compound, K. pneumoniae CTX-M-15 [8]: 1 µg/mL
- MIC of example compound, E. cloacae P99+ [9]: 2 µg/mL
- MIC of example compound, K. pneumoniae KPC-2 [10]: 0.03 µg/mL
- MIC of example compound, P. aeruginosa VIM-2 [11]: >8 µg/mL

Structure (SMILES): CNCc1cccc(C(=O)N[C@@H](Cc2cccc(C(=O)O)c2O)B(O)O)c1 [Example 21, (1R)-(3-methylaminomethyl-benzoylamino)-(3-carboxy-2-hydroxy)benzyl-methylboronic acid formate]
- IC50 [1]: 830 nM
- IC50 [2]: 3 nM
- IC50 [3]: 2 nM
- IC50 [4]: 19 nM
- IC50 [5]: 142 nM
- IC50 [6]: 33 nM
- MIC of example compound, E. coli SHV-5 [7]: 4 µg/mL
- MIC of example compound, K. pneumoniae CTX-M-15 [8]: 1 µg/mL
- MIC of example compound, E. cloacae P99+ [9]: 0.25 µg/mL
- MIC of example compound, K. pneumoniae KPC-2 [10]: 0.01 µg/mL
- MIC of example compound, P. aeruginosa VIM-2 [11]: >8 µg/mL

Structure (SMILES): Cc1cc(NCc2cccc(C(=O)N[C@@H](Cc3cccc(C(=O)O)c3O)B(O)O)c2)no1 [Example 28, (1R)-[3-{(5-methyl-isoxazol-3-ylamino)-methyl}-benzoylamino]-(3-carboxy-2hydroxy)benzyl-methylboronic acid formate]
- IC50 [1]: 15 nM
- IC50 [2]: 0.7 nM
- IC50 [3]: 0.2 nM
- IC50 [4]: 4 nM
- IC50 [5]: 304 nM
- IC50 [6]: 9 nM
- MIC of example compound, E. coli SHV-5 [7]: 8 µg/mL
- MIC of example compound, K. pneumoniae CTX-M-15 [8]: 4 µg/mL
- MIC of example compound, E. cloacae P99+ [9]: 2 µg/mL
- MIC of example compound, K. pneumoniae KPC-2 [10]: 2 µg/mL
- MIC of example compound, P. aeruginosa VIM-2 [11]: >8 µg/mL

Structure (SMILES): NCc1cccc(CC(=O)N[C@@H](Cc2cccc(C(=O)O)c2O)B(O)O)c1 [Example 29, (1R)-[2-(3-aminomethyl-phenyl)-acetylamino]-(3-carboxy-2hydroxy)benzyl-methylboronic acid formate]
- IC50 [1]: 5 nM
- IC50 [2]: 9 nM
- IC50 [3]: 6 nM
- IC50 [4]: 16 nM
- IC50 [5]: 882 nM
- IC50 [6]: 591 nM
- MIC of example compound, E. coli SHV-5 [7]: 0.5 µg/mL
- MIC of example compound, K. pneumoniae CTX-M-15 [8]: 0.12 µg/mL
- MIC of example compound, E. cloacae P99+ [9]: 0.12 µg/mL
- MIC of example compound, K. pneumoniae KPC-2 [10]: 0.03 µg/mL
- MIC of example compound, P. aeruginosa VIM-2 [11]: >8 µg/mL

Structure (SMILES): NCc1ccc(CC(=O)N[C@@H](Cc2cccc(C(=O)O)c2O)B(O)O)cc1 [Example 30, (1R)-[2-(4-aminomethyl-phenyl)-acetylamino]-(3-carboxy-2hydroxy)benzyl-methylboronic acid formate]
- IC50 [1]: 3 nM
- IC50 [2]: 7 nM
- IC50 [3]: 12 nM
- IC50 [4]: 9 nM
- IC50 [5]: 271 nM
- IC50 [6]: 252 nM
- MIC of example compound, E. coli SHV-5 [7]: 0.5 µg/mL
- MIC of example compound, K. pneumoniae CTX-M-15 [8]: 0.06 µg/mL
- MIC of example compound, E. cloacae P99+ [9]: 0.12 µg/mL
- MIC of example compound, K. pneumoniae KPC-2 [10]: 0.01 µg/mL
- MIC of example compound, P. aeruginosa VIM-2 [11]: >8 µg/mL

Structure (SMILES): O=C(N[C@@H](Cc1cccc(C(=O)O)c1O)B(O)O)c1cccc(CNc2nccs2)c1 [Example 31, (1R)-[3-(thiazol-2-ylaminomethyl)-benzoylamino]-(3-carboxy-2-hydroxy)benzyl-methylboronic acid]
- IC50 [1]: 13 nM
- IC50 [2]: 0.5 nM
- IC50 [3]: 0.6 nM
- IC50 [4]: 3 nM
- IC50 [5]: 295 nM
- IC50 [6]: 10 nM
- MIC of example compound, E. coli SHV-5 [7]: 8 µg/mL
- MIC of example compound, K. pneumoniae CTX-M-15 [8]: 4 µg/mL
- MIC of example compound, E. cloacae P99+ [9]: 2 µg/mL
- MIC of example compound, K. pneumoniae KPC-2 [10]: 0.25 µg/mL
- MIC of example compound, P. aeruginosa VIM-2 [11]: >8 µg/mL
